One molecule from patent publication US20180071284A1, “PREVENTING OR TREATING VIRAL INFECTION BY INHIBITION OF THE HISTONE METHYLTRANSFERASE EZH1 OR EZH2” (The United States of America, as represented by the …, priority 2015, published 2018) can be followed below.

Each structure is given as a SMILES string.

Assay [1] has as its system HSV-1. Briefly: HSV-1 viral IE mRNA levels in infected HFF cells. The assay is classed as cell-based, herpes simplex virus 1 (HSV-1). An excerpt:
The HFF cells were then infected with HSV-1 [2.0 PFU (plaque-forming units) per cell] for 1.5-hrs in the presence of inhibitor or DMSO. […] In the figures, the levels of HSV viral IE (ICP4, ICP22, and ICP27) and cellular control (TBP and SP1) mRNAs are expressed relative to cells treated with DMSO (vehicle). […] The HFF cells were then infected with HSV-1 (2.0, 5.0, and 10.0 PFU per cell) for 1.5-hrs in the presence of the inhibitor or DMSO. The levels of HSV viral IE (ICP0, ICP4, ICP22, and ICP27) and cellular controls (SP1 and TBP) mRNAs are expressed relative to cells treated with DMSO (vehicle). […] The levels of HSV viral IE (ICP0, ICP4, ICP22, and ICP27) and cellular control (SP1 and TBP) mRNAs are expressed relative to cells treated with DMSO (vehicle). […] HFF and Vero cells were then infected with HSV-1 (2.0 PFU per cell) for 1.5-hrs in the presence of inhibitor or DMSO. The levels of HSV viral IE (ICP0, ICP4, ICP22, and ICP27) and cellular control (SP1 and TBP) mRNAs are expressed relative to cells treated with DMSO (vehicle). […] HFF cells were treated with EZH1/2 catalytic inhibitor compound 4 (30 μM) or DMSO for 5-hrs. HFF cells were then mock or infected with HSV-1 (2.0 PFU per cell) for 1.5-hrs in the presence of inhibitor or DMSO. The levels of HSV viral IE (ICP4 and ICP27), control (SP1), and cellular innate interferon signaling (IFN-α, TNF-α, IL-8) mRNAs are expressed as absolute levels (absolute copies). […] HFF cells were treated with the EZH1/2 catalytic inhibitor compound 4 (5 μM) or DMSO for the indicated time as shown in FIG. 12. […] The levels of HSV viral IE (ICP0, ICP4, ICP22, and ICP27), control (TBP, ABAT, APOL3, UTX, and JMJD3), and cellular innate interferon signaling (IFN-α) mRNAs are expressed as ratios relative to cells treated with DMSO (vehicle). In this Example compound 4 was decreased to 5 μM and the duration of pretreatment was increased to 12, 24, and 48-hrs.

The subject of assay [2] is HSV-1. Briefly: Mouse trigeminal ganglia explant reactivation model, viral yield titrated on Vero cells. Type of assay: cell-based, herpes simplex virus 1 (HSV-1). Conditions: explant 48-hrs; compound 1 35 μM, compound 3 30 μM, compound 4 30 μM. On the procedure: Trigeminal ganglia from HSV-1 latently infected mice were bisected. Half were explanted in media with control DMSO (vehicle), and the other half were explanted in media with ACV (100 μM), ML324 (50 μM), compound 1 (35 μM), compound 3 (30 μM), or compound 4 (30 μM) for 48-hrs to induce viral reactivation. Viral yields were determined by titrating on Vero cells. Each point represents the titer of one explanted trigeminal ganglia.

The next assay concerns HFF cells. Nature of the assay: Microarray analysis of HFF cells. The assay is classed as cell-based, human. The note with it: 30 μM, 4-hrs. From the text:
-[…] (2013), incorporated herein by reference). In normal fibroblast cells (as opposed to established cell lines or transformed cells lines), 41 genes are co-regulated by IFN (16%) and compound 4 treatment alone.

Assay [3] concerns HSV-1. Nature of the assay: Removal of inhibitors prior to HSV-1 infection of HFF cells (mRNA levels). Type of assay: cell-based, herpes simplex virus 1 (HSV-1). The note with it: washed, then infected. The method, then:
HFF cells were treated with inhibitors targeting the catalytic SET domain (compound 1, 35 μM: EZH2; compound 2, 15 μM: EZH2 and EZH1; compound 4, 30 μM: EZH2), EED-EZH2 and EED-EZH1 (compound 3, 30 μM), or DMSO (control) for 5-hrs. Cells were then washed with phosphate buffered saline (PBS) and replaced with media with no inhibitors for the indicated time in FIGS. 21-24 prior to infection with HSV-1 (2.0 PFU per cell) for 1.5-hrs in the absence of inhibitors.

[4] abbreviates: normal fibroblast cells data set.

Turning to `CC[C@H](C)n1cc(C)c2c(C(=O)NCc3c(C)cc(C)[nH]c3=O)cc(-c3ccc(N4CCNCC4)nc3)cc21` [compound 4, GSK126], in the assay on HSV-1 [1] (5 μM, pretreatment 12, 24, and 48-hrs), the “effect of increasing the duration of pretreatment on HSV IE expression” value was “enhanced the suppression of HSV IE expression”. Also, in the assay on HSV-1 [1] (30 μM, 5-hrs), the “cellular control SP1 mRNA” value is listed as “no impact”. In addition, in the assay with HSV-1 [1] (30 μM, 5-hrs, HSV-1 2.0 PFU per cell 1.5-hrs), the “HSV viral IE expression (ICP4 and ICP27 mRNA)” value is listed as “represses HSV viral IE expression”. Further, the “HSV reactivation from latency (viral yield per explanted trigeminal ganglia)” value with HSV-1 [2] is “block HSV reactivation from latency”. For the same molecule, in the assay on HFF cells, the “genes induced >2 fold that are co-regulated by IFN (Interferome)” value came out at 212 genes; the “genes induced greater than 2 fold relative to vehicle (microarray)” value was found to be 252 genes; the “pro-inflammatory pathways induced (Ingenuity Pathway Analysis)” value was “IL6, IL17, TLR, HMGB1, and JAK/STAT signaling pathways”; the “share of genes induced >2 fold that are co-regulated by IFN (Interferome)” value was found to be 84%. In the assay on HFF cells (setting [4]), the “genes co-regulated by IFN in normal fibroblast cells” value is on record as 41 genes and the “share of genes co-regulated by IFN in normal fibroblast cells” value was found to be 16%. The “HSV IE expression after removal of compound prior to infection” value in the assay on HSV-1 [3] (5-hrs treatment (compound 1 35 μM, 2 15 μM, 3 30 μM, 4 30 μM)) is reported as “recovery of HSV IE expression”. Besides, the “IL6 stimulation after removal of compound prior to infection” value in the assay on HSV-1 [3] (5-hrs treatment) is given as “decrease in IL6 stimulation”.
